According to PubChem BioAssay (NCI):
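Test compounds were applied to cells in 96-well plates for 48 hours at 5 doses. Abbreviation: GI50, concentration required for 50% inhibition of growth. TGI denotes the concentration required for complete inhibition of growth.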

Key:
Test in all cases: NCI anticancer screen, dose series, 48 h
[1] = test system: A498 renal
[2] = test system: CCRF-CEM leukemia
[3] = test system: EKVX NSCLC
[4] = test system: HCT-15 colon
[5] = test system: KM12 colon
[6] = test system: NCI-H23 lung
[7] = test system: OVCAR-4 ovarian
[8] = test system: SK-MEL-2 melanoma
[9] = test system: SN12C renal
[10] = test system: U251 CNS

## CN1CCN(CCCOc2cc(O)c3c(=O)cc(-c4ccccc4)oc3c2)CC1
[1]
  GI50: 22 µM
  TGI: 43.4 µM
[2]
  GI50: 23.6 µM
  TGI: 56.7 µM
[3]
  GI50: 37.6 µM
  TGI: > 100 µM
[4]
  GI50: 4.6 µM
  TGI: 16.3 µM
[5]
  GI50: 22 µM
  TGI: 54.7 µM
[6]
  GI50: 19.9 µM
  TGI: 43.3 µM
[7]
  GI50: 16.3 µM
  TGI: 41 µM
[8]
  GI50: 35.3 µM
  TGI: > 100 µM
[9]
  GI50: 18.9 µM
  TGI: 41.3 µM
[10]
  GI50: 15.1 µM
  TGI: 29 µM

## C[C@@H]1CC[C@@]2(NC1)O[C@H]1C[C@H]3[C@@H]4CC[C@H]5C[C@@H](O)CC[C@]5(C)[C@H]4CC[C@]3(C)[C@H]1[C@@H]2C
[1]
  TGI: > 100 µM
[2]
  TGI: > 100 µM
[3]
  TGI: > 100 µM
[4]
  TGI: > 100 µM
[5]
  TGI: 66.8 µM
[6]
  TGI: > 100 µM
[7]
  TGI: 71.7 µM
[8]
  TGI: > 100 µM
[9]
  TGI: > 100 µM
[10]
  TGI: > 100 µM

## C=C1CCC2C3(C)COC(c4ccccc4Cl)OC3CCC2(C)C1/C=C/C1=CCOC1=O (stereo not given)
[1]
  GI50: > 100 µM
  TGI: > 100 µM
[2]
  GI50: 5.33 µM
  TGI: > 100 µM
[3]
  GI50: 2.82 µM
  TGI: > 100 µM
[4]
  GI50: 6.6 µM
  TGI: > 100 µM
[5]
  GI50: 6.71 µM
  TGI: > 100 µM
[6]
  GI50: 6.18 µM
  TGI: > 100 µM
[7]
  GI50: 4.47 µM
  TGI: > 100 µM
[8]
  GI50: 77.7 µM
  TGI: > 100 µM
[9]
  GI50: > 100 µM
  TGI: > 100 µM
[10]
  GI50: 24 µM
  TGI: > 100 µM

## COc1cc2nccc(Oc3ccc(NC(=O)c4cn(C(C)C)c(=O)n(-c5ccc(F)cc5)c4=O)cc3F)c2cc1OC
[1]
  GI50: 1.64 µM
  TGI: 6.27 µM
[2]
  GI50: > 100 µM
  TGI: > 100 µM
[3]
  GI50: > 30.1 µM
  TGI: > 100 µM
[4]
  GI50: > 100 µM
  TGI: > 100 µM
[5]
  GI50: 0.0453 µM
  TGI: > 100 µM
[6]
  GI50: > 100 µM
  TGI: > 100 µM
[7]
  GI50: > 20.8 µM
  TGI: > 100 µM
[8]
  GI50: > 68.1 µM
  TGI: > 100 µM
[9]
  GI50: 2.81 µM
  TGI: > 100 µM
[10]
  GI50: > 100 µM
  TGI: > 100 µM

## CNC(=O)c1cncc(/C=C/c2ccccc2Cl)c1
[1]
  GI50: > 25 µM
  TGI: > 25 µM
[2]
  GI50: > 25 µM
  TGI: > 25 µM
[3]
  GI50: > 25 µM
  TGI: > 25 µM
[4]
  GI50: > 25 µM
  TGI: > 25 µM
[5]
  GI50: > 25 µM
  TGI: > 25 µM
[6]
  GI50: > 25 µM
  TGI: > 25 µM
[7]
  GI50: > 25 µM
  TGI: > 25 µM
[8]
  GI50: > 25 µM
  TGI: > 25 µM
[9]
  GI50: > 25 µM
  TGI: > 25 µM
[10]
  GI50: > 25 µM
  TGI: > 25 µM

## COC(=O)N[C@H]1CCc2c(Cl)c(OC)c(OC)c(OC)c2-c2ccc(SC)c(=O)cc21
[1]
  GI50: < 0.01 µM
  TGI: < 0.01 µM
[2]
  GI50: < 0.01 µM
  TGI: > 82.7 µM
[3]
  GI50: < 0.01 µM
  TGI: 96.9 µM
[4]
  GI50: < 0.01 µM
  TGI: > 43.9 µM
[5]
  GI50: < 0.01 µM
  TGI: 18.8 µM
[6]
  GI50: < 0.01 µM
  TGI: 37 µM
[7]
  GI50: 0.0813 µM
  TGI: > 100 µM
[8]
  GI50: 5.89 µM
  TGI: > 70.3 µM
[9]
  GI50: < 0.01 µM
  TGI: > 43.9 µM
[10]
  GI50: < 0.01 µM
  TGI: > 40.5 µM
